Values joined by “and” are separate entries in the source; they are usually repeats but may differ in a detail not shown here. Identical values can stand only once.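 96-well plates; 48 h exposure; 5 concentrations. Endpoints by linear interpolation between flanking doses. Not reached: highest tested concentration assigned. GI50: concentration for 50% inhibition of growth. TGI: concentration producing complete growth inhibition.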
Assays:
Test in all cases: NCI-60 cell line screen, 48 h
HCT-15 colon = test system: HCT-15 colon
NCI-H460 lung = test system: NCI-H460 lung
HOP-92 NSCLC = test system: HOP-92 NSCLC
HL-60(TB) leukemia = test system: HL-60(TB) leukemia
OVCAR-8 ovarian = test system: OVCAR-8 ovarian
A498 renal = test system: A498 renal
CCRF-CEM leukemia = test system: CCRF-CEM leukemia
UACC-62 melanoma = test system: UACC-62 melanoma
OVCAR-4 ovarian = test system: OVCAR-4 ovarian
HCC-2998 colon = test system: HCC-2998 colon

SMILES	GI50 (HCT-15 colon)	TGI (HCT-15 colon)	GI50 (NCI-H460 lung)	TGI (NCI-H460 lung)	GI50 (HOP-92 NSCLC)	TGI (HOP-92 NSCLC)	GI50 (HL-60(TB) leukemia)	TGI (HL-60(TB) leukemia)	GI50 (OVCAR-8 ovarian)	TGI (OVCAR-8 ovarian)	GI50 (A498 renal)	TGI (A498 renal)	GI50 (CCRF-CEM leukemia)	TGI (CCRF-CEM leukemia)	GI50 (UACC-62 melanoma)	TGI (UACC-62 melanoma)	GI50 (OVCAR-4 ovarian)	TGI (OVCAR-4 ovarian)	GI50 (HCC-2998 colon)	TGI (HCC-2998 colon)
N#CCCN1C/C(=C/c2ccc(Cl)cc2)C(=O)/C(=C/c2ccc(Cl)cc2)C1	412 nM	1.78 µM	707 nM	2.52 µM	1810 nM	5 µM	2120 nM	7.38 µM	543 nM	11.6 µM	1.59 µM	3.11 µM	396 nM	2.88 µM	1800 nM	4.1 µM	3.01 µM	15.7 µM	1840 nM	3.33 µM
COc1ccc(NC(=O)C2CCC(CNS(=O)(=O)c3ccccc3)CC2)cc1OC (stereo unspecified)	> 100000 nM	> 100 µM	> 100000 nM	> 100 µM	> 100000 nM	> 100 µM	> 100000 nM	> 100 µM	> 100000 nM	> 100 µM	> 100 µM	> 100 µM	> 100000 nM	> 100 µM	54600 nM	> 100 µM	> 100 µM	> 100 µM	> 100000 nM	> 100 µM
Cc1cc(N=Nc2ccccc2C)ccc1N		25.2 µM and 33.4 µM	12300 nM	17.7 µM and 31.2 µM	7410 nM	25.1 µM and 26.8 µM	486 nM		20700 nM	34.6 µM and 96.4 µM	4.38 µM	44.3 µM and 23.8 µM	435 nM	> 100 µM		25.1 µM and 30.6 µM		62.3 µM	22000 nM	24.9 µM and 53.5 µM
O=C(/C=C/c1cccc(O)c1)c1cccc(-n2cc(-c3ccccc3)[nH]c2=O)c1	2940 nM	10.3 µM	2840 nM	7.4 µM	3570 nM	13.8 µM	3270 nM	17.5 µM	2860 nM	10.5 µM	12.3 µM	24.9 µM	3100 nM	> 41.1 µM	2820 nM	9.54 µM	4.15 µM	> 37 µM	8270 nM	20.2 µM
Oc1c(I)cc(I)c2cccnc12	4290 nM	> 100 µM	2930 nM	10.4 µM	8480 nM	83.3 µM	6820 nM	> 100 µM	3350 nM	47.1 µM	12.2 µM	58 µM	6950 nM	> 100 µM	3090 nM	15.6 µM	3.94 µM	> 100 µM	2440 nM	7.34 µM
c1ccc2cc(-c3n(Cc4ccc5ccccc5n4)c4ccccc4[n+]3Cc3ccc4ccccc4n3)ccc2c1	1600 nM	3.18 µM	361 nM	1.31 µM	136 nM	0.517 µM	152 nM	0.462 µM	297 nM	1.22 µM	0.121 µM	0.801 µM	333 nM	1.67 µM	339 nM	1.32 µM	0.255 µM	1.13 µM	344 nM	1.46 µM
OCCNC1c2cc(Cl)ccc2-c2c(Cl)cc(Cl)cc21 (stereo unspecified)		> 100 µM		63.4 µM		55.8 µM		51.4 µM		> 100 µM		> 100 µM		47.4 µM		> 100 µM		> 100 µM		> 100 µM
COC1=C(OC)C(=O)C(SC/C=C(\C)CCCC(C)CCCC(C)CCCC(C)C)=CC1=O (stereo unspecified)	1380 nM	> 100 µM	950 nM	> 32.7 µM	1410 nM	6.65 µM	359 nM	3.41 µM	456 nM	> 100 µM	1.57 µM	6.05 µM	1190 nM	> 100 µM	797 nM	> 100 µM	1.32 µM	> 100 µM	2370 nM	> 100 µM
N#CC1=C(/N=C/c2ccccc2)Oc2c(ccc3ccccc23)C1c1ccccc1 (stereo unspecified)	494 nM	> 100 µM	386 nM	> 39.3 µM	299 nM	> 23.6 µM	295 nM	0.991 µM	708 nM	> 100 µM	0.191 µM	0.747 µM	462 nM	> 100 µM	653 nM	> 100 µM	0.698 µM	> 100 µM	1200 nM	> 67.9 µM
CC(C)(O)CNc1nc(Nc2ccnc(C(F)(F)F)c2)nc(-c2cccc(C(F)(F)F)n2)n1	19700 nM	79.8 µM	23800 nM	60.8 µM	23400 nM	74.2 µM	21100 nM	58.2 µM	26300 nM	84.8 µM	16.1 µM	37.2 µM	21300 nM	73.9 µM	16400 nM	32.6 µM	23.9 µM	86.9 µM	20300 nM	43.7 µM
CSc1nc2sc3c(c2c(=O)n1-c1ccc(C(C)C)cc1)CCC(=O)C3	2140 nM	4.04 µM	2270 nM	5.1 µM	2210 nM	5.24 µM	2720 nM	7.57 µM	2120 nM	4.49 µM	20.4 µM	82.7 µM	2420 nM	6.42 µM	1810 nM	3.49 µM	2.34 µM	5.86 µM	2470 nM	5.02 µM
Nc1nc(Nc2ccccc2SSc2ccccc2Nc2nc(N)nc(C(Cl)(Cl)Cl)n2)nc(C(Cl)(Cl)Cl)n1	3890 nM	15 µM	4000 nM	14.7 µM	4330 nM	21.4 µM	2550 nM	12.1 µM	5380 nM	24.7 µM	24.3 µM	88.8 µM	3230 nM	14 µM	2940 nM	11.4 µM	6.86 µM	45.1 µM	30100 nM	> 100 µM
C#CCNC(=O)[C@H](CC)[C@H]1CC[C@H](C)[C@H]([C@@H](C)[C@H](O)[C@H](C)C(=O)[C@H](CC)C2O[C@]3(C=CC(=O)[C@]4(CC[C@@](C)([C@H]5CC[C@](O)(CC)[C@H](C)O5)O4)O3)[C@H](C)C[C@@H]2C)O1 (stereo partly specified)	2610 nM	7.81 µM	2550 nM	6.94 µM	1370 nM	6.62 µM	2280 nM	5.45 µM	2960 nM	35.8 µM	2.19 µM	6.07 µM	2760 nM	19.3 µM	1680 nM	4.28 µM	2.91 µM	> 100 µM	2350 nM	5.89 µM
